# Where two headings read alike, the source gives them in different places.
# Test system: Phytophthora infestans
# Format: in vivo, Phytophthora infestans on tomato plants
# Conditions: individual active compound, tomato leaves, protective, rated after 6 days
Compound,Efficacy in % of the untreated control (0.25 ppm in the spray liquor) [%],Efficacy in % of the untreated control (1 ppm in the spray liquor) [%],Efficacy in % of the untreated control (4 ppm in the spray liquor) [%]
"CC1CCN(c2c(-c3c(F)cc(F)cc3F)c(Cl)nc3ncnn23)CC1 [II, 5-chloro-7-(4-methylpiperidin-1-yl)-6-(2,4,6-trifluorophenyl)-[1,2,4]triazolo[1,5-a]pyrimidine]",0,0,0
"Cc1c(Br)c2ccc(F)cc2n1S(=O)(=O)c1ncn(S(=O)(=O)N(C)C)n1 [I-62, Tab.7 (IA), N,N-dimethyl-3-(3-bromo-6-fluoro-2-methylindole-1-sulfonyl)-[1,2,4]triazole-1-sulfonamide]",–,56,–

# Reference: US7601673B2 (priority 2004, dated 2009)
